Measured values taken from PubChem BioAssay AID2060503 (Molecular Pharmacology Branch, DTP, NCI, 2025).

test system: 817829-284-R-J1-PDC complex spheroids, viability; assay: Anticancer human tumor 817829-284-R-J1-PDC patient-derived colon adenocarcinoma cell line growth inhibition [GQUAD]; settings: second compound 0.1 µM; first compound 1 µM; stronger effect = lower value
Procedure, shortened: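 Viability of tumor cells grown as complex spheroids with endothelial and stromal cells, exposed to drug combinations. Top concentration at or near clinical Cmax (else 10 microM), diluted in half-log increments.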
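Also: spheroids exposed to agents for 7 days before readout; percent viability relative to DMSO vehicle control taken as 100%.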

How did the viability, T/C turn out when `COc1cc(C2c3cc4c(cc3C(OC3OC5COC(C)OC5C(O)C3O)C3COC(=O)C23)OCO4)cc(OC)c1O` (configuration not stated) + Cc1[nH]c2ccc(F)cc2c1-c1nc2c3cccnc3c3ncccc3c2[nH]1 was run?
The viability, T/C was 31.8%.

For `COc1cccc2c1C(=O)c1c(O)c3c(c(O)c1C2=O)CC(O)(C(=O)CO)CC3OC1CC(N)C(O)C(C)O1` (configuration not stated) + Cc1[nH]c2ccc(F)cc2c1-c1nc2c3cccnc3c3ncccc3c2[nH]1, which viability, T/C is on record?
Its viability, T/C is 14%.

For `Cc1cccc(N(C)C(=O)C2C(O)CCN2c2nc(C)cc(C(F)(F)F)c2C#N)c1` (configuration not stated) + Cc1[nH]c2ccc(F)cc2c1-c1nc2c3cccnc3c3ncccc3c2[nH]1, which viability, T/C is on record?
Its viability, T/C is 102%.

With `O=C(c1cc(Cc2n[nH]c(=O)c3ccccc23)ccc1F)N1CCN(C(=O)C2CC2)CC1` + Cc1[nH]c2ccc(F)cc2c1-c1nc2c3cccnc3c3ncccc3c2[nH]1 as the compound, how does the viability, T/C read?
Its viability, T/C is 98.8%.

same assay, conditions: second compound 0.1 µM; first compound 3.16 µM; stronger effect = lower value

Which viability, T/C does the source give for `C=CC(=O)N1CCN(c2nc(=O)n(-c3c(C)ccnc3C(C)C)c3nc(-c4c(O)cccc4F)c(F)cc23)C(C)C1` (configuration not stated) + Cc1[nH]c2ccc(F)cc2c1-c1nc2c3cccnc3c3ncccc3c2[nH]1 here?
Its viability, T/C is 108%.

`CC(C)n1c(=O)n(C)c2cnc3cc(F)c(-c4ccc(OCCCN5CCCCC5)nc4)cc3c21` + Cc1[nH]c2ccc(F)cc2c1-c1nc2c3cccnc3c3ncccc3c2[nH]1 was tested. Which viability, T/C did it give?
Its viability, T/C is 107%.

For `COc1cc(C2c3cc4c(cc3C(OC3OC5COC(C)OC5C(O)C3O)C3COC(=O)C23)OCO4)cc(OC)c1O` (configuration not stated) + Cc1[nH]c2ccc(F)cc2c1-c1nc2c3cccnc3c3ncccc3c2[nH]1, which viability, T/C is on record?
Its viability, T/C is 26%.

With `COc1cccc2c1C(=O)c1c(O)c3c(c(O)c1C2=O)CC(O)(C(=O)CO)CC3OC1CC(N)C(O)C(C)O1` (configuration not stated) + Cc1[nH]c2ccc(F)cc2c1-c1nc2c3cccnc3c3ncccc3c2[nH]1 as the compound, how does the viability, T/C read?
Its viability, T/C is 0.63%.

`Cc1cccc(N(C)C(=O)C2C(O)CCN2c2nc(C)cc(C(F)(F)F)c2C#N)c1` (configuration not stated) + Cc1[nH]c2ccc(F)cc2c1-c1nc2c3cccnc3c3ncccc3c2[nH]1 was tested. Which viability, T/C did it give?
The viability, T/C was 101%.

With `O=C(c1cc(Cc2n[nH]c(=O)c3ccccc23)ccc1F)N1CCN(C(=O)C2CC2)CC1` + Cc1[nH]c2ccc(F)cc2c1-c1nc2c3cccnc3c3ncccc3c2[nH]1 as the compound, how does the viability, T/C read?
The viability, T/C was 95.5%.

same assay, conditions: second compound 0.1 µM; first compound 10 µM; stronger effect = lower value

With `C=CC(=O)N1CCN(c2nc(=O)n(-c3c(C)ccnc3C(C)C)c3nc(-c4c(O)cccc4F)c(F)cc23)C(C)C1` (configuration not stated) + Cc1[nH]c2ccc(F)cc2c1-c1nc2c3cccnc3c3ncccc3c2[nH]1 as the compound, how does the viability, T/C read?
The viability, T/C was 92.8%.

`CC(C)n1c(=O)n(C)c2cnc3cc(F)c(-c4ccc(OCCCN5CCCCC5)nc4)cc3c21` + Cc1[nH]c2ccc(F)cc2c1-c1nc2c3cccnc3c3ncccc3c2[nH]1 was tested. Which viability, T/C did it give?
Its viability, T/C is 117%.

`COc1cc(C2c3cc4c(cc3C(OC3OC5COC(C)OC5C(O)C3O)C3COC(=O)C23)OCO4)cc(OC)c1O` (configuration not stated) + Cc1[nH]c2ccc(F)cc2c1-c1nc2c3cccnc3c3ncccc3c2[nH]1 was tested. Which viability, T/C did it give?
The viability, T/C was 9.21%.

For `COc1cccc2c1C(=O)c1c(O)c3c(c(O)c1C2=O)CC(O)(C(=O)CO)CC3OC1CC(N)C(O)C(C)O1` (configuration not stated) + Cc1[nH]c2ccc(F)cc2c1-c1nc2c3cccnc3c3ncccc3c2[nH]1, which viability, T/C is on record?
The viability, T/C was 0.15%.

For `Cc1cccc(N(C)C(=O)C2C(O)CCN2c2nc(C)cc(C(F)(F)F)c2C#N)c1` (configuration not stated) + Cc1[nH]c2ccc(F)cc2c1-c1nc2c3cccnc3c3ncccc3c2[nH]1, which viability, T/C is on record?
The viability, T/C was 105%.

Which viability, T/C does the source give for `O=C(c1cc(Cc2n[nH]c(=O)c3ccccc23)ccc1F)N1CCN(C(=O)C2CC2)CC1` + Cc1[nH]c2ccc(F)cc2c1-c1nc2c3cccnc3c3ncccc3c2[nH]1 here?
Its viability, T/C is 60%.

same assay, conditions: second compound 0.316 µM; first compound 0.000999 µM; stronger effect = lower value

With `CCc1c2c(nc3ccc(O)cc13)-c1cc3c(c(=O)n1C2)COC(=O)[C@]3(O)CC` + Cc1[nH]c2ccc(F)cc2c1-c1nc2c3cccnc3c3ncccc3c2[nH]1 as the compound, how does the viability, T/C read?
Its viability, T/C is 43.5%.

same assay, conditions: second compound 0.316 µM; first compound 0.00316 µM; stronger effect = lower value

How did the viability, T/C turn out when `CCc1c2c(nc3ccc(O)cc13)-c1cc3c(c(=O)n1C2)COC(=O)[C@]3(O)CC` + Cc1[nH]c2ccc(F)cc2c1-c1nc2c3cccnc3c3ncccc3c2[nH]1 was run?
Its viability, T/C is 35.6%.

same assay, conditions: second compound 0.316 µM; first compound 0.00999 µM; stronger effect = lower value

For `CCc1c2c(nc3ccc(O)cc13)-c1cc3c(c(=O)n1C2)COC(=O)[C@]3(O)CC` + Cc1[nH]c2ccc(F)cc2c1-c1nc2c3cccnc3c3ncccc3c2[nH]1, which viability, T/C is on record?
Its viability, T/C is 23.6%.

same assay, conditions: second compound 0.316 µM; first compound 0.0316 µM; stronger effect = lower value

For `C=CC(=O)N1CCN(c2nc(=O)n(-c3c(C)ccnc3C(C)C)c3nc(-c4c(O)cccc4F)c(F)cc23)C(C)C1` (configuration not stated) + Cc1[nH]c2ccc(F)cc2c1-c1nc2c3cccnc3c3ncccc3c2[nH]1, which viability, T/C is on record?
The viability, T/C was 84.3%.

With `CC(C)n1c(=O)n(C)c2cnc3cc(F)c(-c4ccc(OCCCN5CCCCC5)nc4)cc3c21` + Cc1[nH]c2ccc(F)cc2c1-c1nc2c3cccnc3c3ncccc3c2[nH]1 as the compound, how does the viability, T/C read?
The viability, T/C was 79.7%.

`CCc1c2c(nc3ccc(O)cc13)-c1cc3c(c(=O)n1C2)COC(=O)[C@]3(O)CC` + Cc1[nH]c2ccc(F)cc2c1-c1nc2c3cccnc3c3ncccc3c2[nH]1 was tested. Which viability, T/C did it give?
The viability, T/C was 16.7%.

`COc1cc(C2c3cc4c(cc3C(OC3OC5COC(C)OC5C(O)C3O)C3COC(=O)C23)OCO4)cc(OC)c1O` (configuration not stated) + Cc1[nH]c2ccc(F)cc2c1-c1nc2c3cccnc3c3ncccc3c2[nH]1 was tested. Which viability, T/C did it give?
The viability, T/C was 86.7%.

For `COc1cccc2c1C(=O)c1c(O)c3c(c(O)c1C2=O)CC(O)(C(=O)CO)CC3OC1CC(N)C(O)C(C)O1` (configuration not stated) + Cc1[nH]c2ccc(F)cc2c1-c1nc2c3cccnc3c3ncccc3c2[nH]1, which viability, T/C is on record?
The viability, T/C was 86.2%.

How did the viability, T/C turn out when `Cc1cccc(N(C)C(=O)C2C(O)CCN2c2nc(C)cc(C(F)(F)F)c2C#N)c1` (configuration not stated) + Cc1[nH]c2ccc(F)cc2c1-c1nc2c3cccnc3c3ncccc3c2[nH]1 was run?
Its viability, T/C is 90.9%.

With `O=C(c1cc(Cc2n[nH]c(=O)c3ccccc23)ccc1F)N1CCN(C(=O)C2CC2)CC1` + Cc1[nH]c2ccc(F)cc2c1-c1nc2c3cccnc3c3ncccc3c2[nH]1 as the compound, how does the viability, T/C read?
The viability, T/C was 97.7%.

same assay, conditions: second compound 0.316 µM; first compound 0.0999 µM; stronger effect = lower value

How did the viability, T/C turn out when `CCc1c2c(nc3ccc(O)cc13)-c1cc3c(c(=O)n1C2)COC(=O)[C@]3(O)CC` + Cc1[nH]c2ccc(F)cc2c1-c1nc2c3cccnc3c3ncccc3c2[nH]1 was run?
Its viability, T/C is 8.62%.

same assay, conditions: second compound 0.316 µM; first compound 0.1 µM; stronger effect = lower value

For `C=CC(=O)N1CCN(c2nc(=O)n(-c3c(C)ccnc3C(C)C)c3nc(-c4c(O)cccc4F)c(F)cc23)C(C)C1` (configuration not stated) + Cc1[nH]c2ccc(F)cc2c1-c1nc2c3cccnc3c3ncccc3c2[nH]1, which viability, T/C is on record?
Its viability, T/C is 102%.

How did the viability, T/C turn out when `CC(C)n1c(=O)n(C)c2cnc3cc(F)c(-c4ccc(OCCCN5CCCCC5)nc4)cc3c21` + Cc1[nH]c2ccc(F)cc2c1-c1nc2c3cccnc3c3ncccc3c2[nH]1 was run?
Its viability, T/C is 99.8%.

Which viability, T/C does the source give for `COc1cc(C2c3cc4c(cc3C(OC3OC5COC(C)OC5C(O)C3O)C3COC(=O)C23)OCO4)cc(OC)c1O` (configuration not stated) + Cc1[nH]c2ccc(F)cc2c1-c1nc2c3cccnc3c3ncccc3c2[nH]1 here?
The viability, T/C was 80.4%.

`COc1cccc2c1C(=O)c1c(O)c3c(c(O)c1C2=O)CC(O)(C(=O)CO)CC3OC1CC(N)C(O)C(C)O1` (configuration not stated) + Cc1[nH]c2ccc(F)cc2c1-c1nc2c3cccnc3c3ncccc3c2[nH]1 was tested. Which viability, T/C did it give?
Its viability, T/C is 44.8%.

How did the viability, T/C turn out when `Cc1cccc(N(C)C(=O)C2C(O)CCN2c2nc(C)cc(C(F)(F)F)c2C#N)c1` (configuration not stated) + Cc1[nH]c2ccc(F)cc2c1-c1nc2c3cccnc3c3ncccc3c2[nH]1 was run?
Its viability, T/C is 116%.

`O=C(c1cc(Cc2n[nH]c(=O)c3ccccc23)ccc1F)N1CCN(C(=O)C2CC2)CC1` + Cc1[nH]c2ccc(F)cc2c1-c1nc2c3cccnc3c3ncccc3c2[nH]1 was tested. Which viability, T/C did it give?
Its viability, T/C is 99.7%.

same assay, conditions: second compound 0.316 µM; first compound 0.316 µM; stronger effect = lower value

For `C=CC(=O)N1CCN(c2nc(=O)n(-c3c(C)ccnc3C(C)C)c3nc(-c4c(O)cccc4F)c(F)cc23)C(C)C1` (configuration not stated) + Cc1[nH]c2ccc(F)cc2c1-c1nc2c3cccnc3c3ncccc3c2[nH]1, which viability, T/C is on record?
The viability, T/C was 104%.

With `CC(C)n1c(=O)n(C)c2cnc3cc(F)c(-c4ccc(OCCCN5CCCCC5)nc4)cc3c21` + Cc1[nH]c2ccc(F)cc2c1-c1nc2c3cccnc3c3ncccc3c2[nH]1 as the compound, how does the viability, T/C read?
Its viability, T/C is 103%.

Which viability, T/C does the source give for `CCc1c2c(nc3ccc(O)cc13)-c1cc3c(c(=O)n1C2)COC(=O)[C@]3(O)CC` + Cc1[nH]c2ccc(F)cc2c1-c1nc2c3cccnc3c3ncccc3c2[nH]1 here?
Its viability, T/C is 5.24%.

For `COc1cc(C2c3cc4c(cc3C(OC3OC5COC(C)OC5C(O)C3O)C3COC(=O)C23)OCO4)cc(OC)c1O` (configuration not stated) + Cc1[nH]c2ccc(F)cc2c1-c1nc2c3cccnc3c3ncccc3c2[nH]1, which viability, T/C is on record?
The viability, T/C was 26.4%.
